In patent US9376406B2, “uPAR-uPA interaction inhibitors and methods for treating cancer” (Indiana University Research and Technology Corporation, priority 2011, dated 2016):
Where two headings read alike, the source gives them in different places.

Assays:
[1] = cellular studies, cytotoxicity of IPR-803; format: cell-based
uPAR = target: T1, uPAR (Homo sapiens, UniProt Q03405); experiment: Fluorescence polarization, direct binding to uPAR; settings: excitation 530 nm, emission 600 nm
T1 construct: uPAR comprising amino acids 1-277 was expressed in Drosophila S2 cells; made in house; host or cells: Drosophila S2 cells
Procedure: Fluorescence polarization in the presence and absence of protein and were measured using identical conditions as described above.
The mP was evaluated in the a presence and absence of competing 10 μM GFD.

TMD-231 cells = experiment: xenograft mice model of breast cancer metastasis; format: in vivo
Procedure: in vivo Efficacy of IPR-803 in xenograft mice model of cancer. Breast Cancer Metastasis. The Example is performed as described in Wang et al. (2011) Virtual Screening Targeting the Urokinase Receptor, Biochemical and Cell-Based Studies, Synthesis, Pharmacokinetic Characterization, and Effect on Breast Tumor Metastasis. J Med Chem In press, the disclosure of which is incorporated herein in its entirety. Briefly, TMD-231 cells are inoculated into the mammary fat pad of female NOD/SCID mice. Dosing is initiated at day 15 post implantation. Animals are randomized and treated with vehicle or with test compound by daily oral gavage at a dose of 200 mg/kg.
While uPAR's effects on growth are known to be minimal, its role in promoting invasion and metastasis is widely established. To assess the effect of IPR-803 on metastasis, control and experimental animals were sacrificed and organs (lungs) were removed and evaluated for the presence of tumors. The number and size of metastasis in two to five fields per sample were calculated. A score of 4+ was given to a sample with highest metastasis index and relative metastasis in other samples are calculated (i.e., 1+, 2+, 3+) by a sample-blinded pathologist. […] For example, 11 out of 13 untreated mice developed severe (score=3) or marked (score=4) metastasis to the lung. This is compared to only 4 in the treated mice. Among the treated mice, 4 developed moderate metastasis, and another four were scored at 1 or lower, showing mild metastasis to the lungs.
IPR-803 was administered at 200 mg/kg p.o. to test animals, and conventional evaluation of cancer progression and survival measurements were made. […] It is observed that there is a greater percentage of mild an moderate outcomes in the treatment group compared to the untreated group showing a majority of severe outcomes. In addition, whole animal toxicity was evaluated by periodic measurement of weight change in test animals.

[2] = in vivo pharmacokinetics in mice
Procedure: in vivo Pharmacokinetics of IPR-803 in mice. Compounds are administered to mice via a single dose of 200 mg/kg by oral gavage using a formulation of saline. Blood ([…]) is taken from the mice at their tails at time intervals of 1, 2, 4, 6, 8 and 10 hours (three time points from each of the 18 mice (21)) post injection. Blood plasma samples are prepared by centrifugation for quantification and HPLC-MS/MS analysis. […] The stability of the compounds in plasma is reflected by the half-life (t1/2). To gain insight into its absorption following oral dosing, intravenous bioavailability of compounds described herein is determined. Compounds are injected intravenously (IV) into the tail vein. Blood plasma samples are prepared from collected blood samples at 5, 10, 20, 45 and 120 minutes (three mice per time point). […] The levels of the compound in tumor tissue remained high even after 10 hours.

[3] = tested on: integrins (phospho p44/42 MAPK, p44/42 MAPK, pSrc Y416, Src, pFAK Y397, FAK); experiment: Integrin signaling by gel electrophoresis; format: cell-based
[4] = mouse, plasma, po, 200 mg/kg p.o.

T1 sequence (Q03405 23-299): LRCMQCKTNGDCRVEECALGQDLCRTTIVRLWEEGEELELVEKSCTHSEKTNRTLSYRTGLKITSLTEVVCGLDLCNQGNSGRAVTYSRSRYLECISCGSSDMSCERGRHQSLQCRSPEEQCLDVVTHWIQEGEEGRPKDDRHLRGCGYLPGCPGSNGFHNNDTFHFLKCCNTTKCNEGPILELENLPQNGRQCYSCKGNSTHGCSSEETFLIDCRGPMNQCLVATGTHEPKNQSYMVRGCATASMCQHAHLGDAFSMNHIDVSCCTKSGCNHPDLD

## O=C(O)c1cccc(Nc2cc(N3CCCCCC3)c3noc4c3c2C(=O)c2ccccc2-4)c1 [IPR-803, 3-((3-(azepan-1-yl)-6-oxo-6H-anthra[1,9-cd]isoxazol-5-yl)amino)benzoic acid]
[1]
  cytotoxicity: not cytotoxic
uPAR
  fluorescence polarization (mP) with increasing uPAR concentration: showed a dose response with increasing mP
TMD-231 cells; 200 mg/kg p.o., n=15
  outcome (cancer progression and survival) compared to vehicle: statistically significant (p<0.013) improvement in outcome
TMD-231 cells; 200 mg/kg p.o., n=15, vs vehicle control
  weight change (whole animal toxicity): No significant weight change
TMD-231 cells; treated mice
  number of mice scored at 1 or lower, mild metastasis to the lungs: four
  number of mice with moderate metastasis: 4
  number of mice with severe (score=3) or marked (score=4) metastasis to the lung: 4
TMD-231 cells; treated mice, 200 mg/kg daily oral gavage, 33 day study
  tumor volume: ~693 mm^3
TMD-231 cells; treated vs untreated
  effects on tumor size: ~10%
[2]; 200 mg/kg p.o.
  Cl/F: 0.379 L/h
[2]; LC/MS/MS at 1, 2, 4, 6, and 8 hour intervals
  level in the primary tumor: ~10 µM
[2]; after 10 hours
  levels of the compound in tumor tissue: remained high
[2]; mouse, plasma, oral, 200 mg/kg, estimated from p.o. and IV data
  bioavailability: ~4%
[2]; [4]
  AUC(0-inf): 13700 ng·h/mL
  AUC(0-t): 11300 ng·h/mL
  Tmax: 1 h
  half-life: 4.7 h
[2]; mouse, plasma, po, 200 mg/kg p.o., read-out: Cmax
  Cmax: 2600 ng/mL
[2]; mouse, plasma, po, 200 mg/kg p.o., read-out: Vdss/F
  Vd/F: 2.23 L
[2]; mouse, plasma, mice, 200 mg/kg oral gavage, saline, read-out: maximum concentration (Cmax) in plasma
  Cmax: 5 µM
[3]
  signaling effect on pathways implicated with growth, such as ERK: does not have a signaling affect
